Source: patent publication US5071636A, “Chelating compounds and their use” (Nihon Medi-Physics Co., Ltd., priority 1987, dated 1991)

Assays:
[1] = Biodistribution in rabbits: biological half life in the brain by gamma camera imaging; format: in vivo, Japanese white rabbits (male); conditions: for Biological half-life in brain, First phase / Biological half-life in brain, First phase (rate) / Biological half-life in brain, Second phase / Biological half-life in brain, Second phase (rate): rabbit, in vivo; for Accumulation in the cerebral parenchymal cells / biological half life in the brain, first phase / biological half life in the brain, second phase / rate of first phase of biological half life in the brain / rate of second phase of biological half life in the brain: rabbits, Example 10; for Accumulation in the cerebral parenchymal cells: imaging; for biological half life in the brain, first phase / biological half life in the brain, second phase / rate of first phase of biological half life in the brain / rate of second phase of biological half life in the brain: via the carotid artery
Protocol: Japanese white rabbits (male) were anesthetized with a pentobarbital solution (2.5 mg/kg), and Tc-99m(BI-11o) (0.2 ml, […]) was administered via the carotid artery under a gamma camera (GCA-90B, Toshiba Co., Ltd.). Then, imaging of 112 frames (30 seconds/frame) was made in minutes. A region of interest was drawn around brain on images, and the time-activitycurve of the brain was obtained.
It was thus concluded that the above examination procedure was suitable for evaluation of the accumulation in the brain and the disappearance from the brain.
In the same manner as in Example 10 using other technetium-99m-labeled polyaminedithiol compounds instead of Tc-99m-(BI-11o), their biodistribution in rabbits was examined, and their biological half-life in the brain was calculated.

[2] = Thin layer electrophoresis (EP) of technetium-99m-labeled compounds; format: physicochemical; conditions: Table 16, Tc-99m-labeled; 50 mM phosphate buffer pH 7.4, 0.5 mA/cm, room temperature, 15 minutes
Protocol: ZI. Thin layer electrophoresis for Tc-99m-(BI-11c)
An appropriate amount of Tc-99m-(BI-11c) was spotted on an acetylated cellulose membrane and subjected to electrophoresis using 50 mM phosphate buffer (pH, 7.4) as an electrode buffer at a constant current of 0.5 mA/cm and at room temperature for 15 minutes. In the same manner as in ZH, the membrane was scanned to determine the distribution of radioactivity with a thin layer radioachromatoscanner.
In the same manner as in Example 8 ZF, ZG, ZH and ZI but using other polyaminedithiol compounds instead of Compound (11c), preparation of non-radioactive carriers and radioactive diagnostic agents was made. The optimum labeling conditions for the polyaminedithiol compounds were studied. Furthermore, the physical characteristics of the produced technetium-99m-labeled polyaminedithiol compounds were evaluated.

[3] = tested on: normal cerebral parenchymal cells; conditions: in vivo; cited from earlier work

Structure (SMILES)	Biological half-life in brain, First phase [1]	Biological half-life in brain, First phase (rate) [1]	Biological half-life in brain, Second phase [1]	Biological half-life in brain, Second phase (rate) [1]	EP (Charge) [2]	Accumulation in the cerebral parenchymal cells [1]	biological half life in the brain, first phase [1]	biological half life in the brain, second phase [1]	rate of first phase of biological half life in the brain [1]	rate of second phase of biological half life in the brain [1]	accumulation in normal cerebral parenchymal cells [3]
CC(C)(S)CNCCNC(CN1CCCC1)C(C)(C)S (centres unmarked) [Compound 11r, N-(2-Mercapto-2-methylpropyl)-N'-(2-mercapto-2-methyl-1-pyrrolidinomethylpropyl)ethylenediamine]	3 min	28%	36 min	72%							
CCCCCNCC(NCCNCC(C)(C)S)C(C)(C)S (centres unmarked) [Compound 11d, N-(2-Mercapto-2-methylpropyl)-N' -(1-n-amylaminomethyl-2-mercapto-2-methylpropyl)ethylenediamine]	18 min	32%	184 min	68%	.smallcircle.						
CC(C)(S)CNCCNC(CN1CCCCC1)C(C)(C)S (centres unmarked) [Compound 11g, N-(2-Mercapto-2-methylpropyl)-N' -(2-mercapto-2-methyl-1-piperidino-methylpropyl)ethylenediamine]	5 min	23%	60 min	77%							
CC(C)(S)C(CNCCCN1CCOCC1)NCCNC(CNCCCN1CCOCC1)C(C)(C)S (centres unmarked) [Compound 14s, N,N'-Bis[2-mercapto-2-methyl-1-(3-morpholinopropylamino)methyl-propyl]ethylenediamine]					.smallcircle.						
O=C([O-])CN(CCN(CC(=O)[O-])CC(=O)[O-])CCN(CC(=O)[O-])CC(=O)[O-].[99Tc+4] [^99m Tc-DTPA, ^99m Tc-labeled diethylenetriaminepentaacetic acid, reference compound]						no accumulation was seen	2 minutes	18 minutes	75%	25%	not accumulating
CC(C)(S)CNCCNC(CN1CCN(Cc2ccccc2)CC1)C(C)(C)S (centres unmarked) [Compound 11w, N-(2-Mercapto-2-methylpropyl)-N'-[1-(4-benzylpiperazino)methyl-2-mercapto-2-methylpropyl]ethylenediamine]	13 min	60%	144 min	40%	.smallcircle.						
CC(C)(S)CNCCNC(CN1CCC(c2ccccc2)CC1)C(C)(C)S (centres unmarked) [Compound 11x, N-(2-Mercapto-2-methylpropyl)-N'-[2-mercapto-2-methyl-1-(4-phenylpiperidino)methylpropyl]ethylenediamine]	10 min	46%	150 min	54%	.smallcircle.						
CCCC(C)NCC(NCCNCC(C)(C)S)C(C)(C)S (centres unmarked) [Compound 11l, N-(2-Mercapto-2-methylpropyl)-N' -[1-(1-methylbutylamino)-methyl-2-mercapto-2-methylpropyl]ethylene-diamine]	11 min	34%	132 min	66%							
CC(C)(S)CNCCNC(CN1CCNCC1)C(C)(C)S (centres unmarked) [Compound 11h, N-(2-Mercapto-2-methylpropyl)-N'-(2-mercapto-2-methyl-1-piperazinomethylpropyl)ethylenediamine]	1 min	44%	40 min	56%							
CCCCN(CC)CC(NCCNCC(C)(C)S)C(C)(C)S (centres unmarked) [Compound 11n, N-(2-Mercapto-2-methylpropyl)-N' -[1-(N-butyl-N-ethylamino)-methyl-2-mercapto-2-methylpropyl]ethylenediamine]	17 min	42%	198 min	58%							
CCCCCCNCC(NCCNCC(C)(C)S)C(C)(C)S (centres unmarked) [Compound 11m, N-(2-Mercapto-2-methylpropyl)-N' -(1-n-hexylaminomethyl-2-mercapto-2-methylpropyl)ethylenediamine]	3 min	24%	58 min	76%	.smallcircle.						
CN1CCN(CC(NCCNCC(C)(C)S)C(C)(C)S)CC1 (centres unmarked) [Compound 11i, N-(2-Mercapto-2-methylpropyl)-N' -[2-mercapto-2-methyl-1-(4-methyl-piperazino)methylpropyl]ethylene-diamine]	8 min	50%	686 min	50%							
CC(C)(S)C(CNCCN1CCOCC1)NCCNC(CNCCN1CCOCC1)C(C)(C)S (centres unmarked) [Compound 14r, N,N' -Bis[2-mercapto-2-methyl-1-(2-morpholinoethylamino)methylpropyl]-ethylenediamine]					.smallcircle.						
CCCCSC(C)(C)CNCCNC(CN1CCC(C)CC1)C(C)(C)S (centres unmarked) [Compound 33, N-(2-Butylthio-2-methylpropyl)-N'-[2-mercapto-2-methyl-1-(4-methylpiperidino)methylpropyl]-ethylenediamine]	7 min	26%	148 min	74%	.smallcircle.						
CC1CCN(CC(NCCNCC(C)(C)S)C(C)(C)S)CC1 (centres unmarked) [Compound 11p, N-(2-Mercapto-2-methylpropyl)-N'-[2-mercapto-2-methyl-1-(4-methylpiperidino)methylpropyl]ethylenediamine]	3 min	18%	83 min	82%	.smallcircle.						
CC(C)(S)CNCCNC(CN1CCOCC1)C(C)(C)S (centres unmarked) [Compound 11k, N-(2-Mercapto-2-methylpropyl)-N' -(2-mercapto-2-methyl-1-morpholino-methylpropyl)ethylenediamine]	4 min	39%	21 min	61%							
CC(C)NC(C)Cc1ccc([123I])cc1 (centres unmarked) [Compound I-123-IMP, N-isopropyl-2-methyl-p-iodo(I-123)-phenethylamine, reference compound]						observed	71 minutes	98 minutes	39%	61%	
